# Measurements from US8546451B2 (priority 2005, dated 2013).
# Marks after values point to notes of the source that are not given here.
# Experiments:
# rat ER-α = rat ER-α (Rattus norvegicus (Rat), UniProt P06211); test: cell-based
# Procedure: Transactivation assays in agonist and antagonist modes were performed to identify whether the compound is an agonist, antagonist or a partial.
# Sequencing was performed to determine the absence of any mutations. HEK-293 cells were plated at 100,000 cells per well of a 24 well plate in Dulbecco's Minimal Essential Media (DMEM) +5% charcoal-stripped fetal bovine serum (csFBS). The cells were transfected using Lipofectamine (Invitrogen, Carlsbad, Calif.) with 0.25 μg ERE-LUC, 0.02 μg CMV-LUC (renilla luciferase) and 12.5 ng of rat ER-α or 25 ng rat ER-β. […] Luciferase assays were performed 48 hrs after transfection.
# rats [1] = test: Gastrointestinal effects in rats; type: in vivo; conditions: oral
# rats [2] = test: Single and repeated oral administration toxicity in rats; type: in vivo
# Description: Compound IV was well-tolerated by rats and dogs after single and repeated oral administration (up to 28 days).
# [3] = target: glucocorticoid receptor (GR) (Rattus norvegicus (Rat), UniProt P06536); test: DES versus Compound IV, GR crossreaction (FIG. 12A); type: cell-based
# glucocorticoid receptor (GR), sequence (P06536 whole entry): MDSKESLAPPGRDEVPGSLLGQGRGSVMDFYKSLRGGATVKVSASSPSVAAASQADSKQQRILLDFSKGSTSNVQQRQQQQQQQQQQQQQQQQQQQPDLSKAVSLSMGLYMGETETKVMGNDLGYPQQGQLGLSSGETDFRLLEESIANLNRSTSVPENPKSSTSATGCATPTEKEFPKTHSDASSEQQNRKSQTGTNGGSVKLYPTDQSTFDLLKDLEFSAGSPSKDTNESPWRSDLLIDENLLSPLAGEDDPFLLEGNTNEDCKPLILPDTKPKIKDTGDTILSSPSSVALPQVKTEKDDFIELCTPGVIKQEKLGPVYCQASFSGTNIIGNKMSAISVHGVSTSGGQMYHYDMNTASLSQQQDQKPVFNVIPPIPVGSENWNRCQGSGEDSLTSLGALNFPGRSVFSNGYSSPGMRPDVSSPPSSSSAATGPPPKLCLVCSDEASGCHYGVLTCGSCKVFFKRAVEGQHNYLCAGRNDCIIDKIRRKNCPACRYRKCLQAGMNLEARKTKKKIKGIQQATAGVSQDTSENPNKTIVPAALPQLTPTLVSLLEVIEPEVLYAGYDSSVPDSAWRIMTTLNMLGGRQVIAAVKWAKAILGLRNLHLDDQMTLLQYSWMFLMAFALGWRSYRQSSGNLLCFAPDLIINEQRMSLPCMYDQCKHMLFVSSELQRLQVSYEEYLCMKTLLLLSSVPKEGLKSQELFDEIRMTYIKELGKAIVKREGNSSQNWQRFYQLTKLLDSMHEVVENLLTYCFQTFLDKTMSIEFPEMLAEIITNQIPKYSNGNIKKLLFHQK
# CYP3A4 = test: CYP450 induction in vitro, CYP3A4; type: in vitro ADME
# human platelets = test: In vitro human platelet aggregation assay (thrombin-induced); conditions: platelet rich plasma preincubated 30 seconds; thrombin 0.3 units
# [4] = test system: testosterone, prostate specific antigen (PSA), prostate volume and weight; test: 39-week oral pharmacology and toxicology study in male cynomolgus monkey (13-week interim); conditions: for Mean serum PSA level / Percentage change of mean PSA levels compared to baseline: 4-week; for Percentage change of mean prostate volumes compared to baseline / Mean prostate volumes (ratio): 6-week; for Mean prostate volumes (ratio): TRUS, normalized to body weight; for Mean prostate weights at necropsy / Percentage change of mean prostate weights compared to baseline: 13-week
# [5] = 1 mg/kg/day oral, Estimated final concentrations
# [6] = 1 mg/kg/day oral, Quantifiable concentrations only
# [7] = 10 mg/kg/day oral, Estimated final concentrations
# [8] = 10 mg/kg/day oral, Quantifiable concentrations only
# [9] = 100 mg/kg/day oral, Estimated final concentrations
# [10] = 100 mg/kg/day oral, Quantifiable concentrations only
# [11] = Day 1, 1 mg/kg/day oral, Estimated final concentrations
# [12] = Day 1, 1 mg/kg/day oral, Quantifiable concentrations only
# [13] = Day 1, 10 mg/kg/day oral, Estimated final concentrations
# [14] = Day 1, 10 mg/kg/day oral, Quantifiable concentrations only
# [15] = Day 1, 100 mg/kg/day oral, Estimated final concentrations
# [16] = Day 1, 100 mg/kg/day oral, Quantifiable concentrations only
# [17] = Day 3, 1 mg/kg/day oral, Estimated final concentrations
# [18] = Day 3, 1 mg/kg/day oral, Quantifiable concentrations only
# [19] = Day 3, 10 mg/kg/day oral, Estimated final concentrations
# [20] = Day 3, 10 mg/kg/day oral, Quantifiable concentrations only
# [21] = Day 3, 100 mg/kg/day oral, Estimated final concentrations
# [22] = Day 3, 100 mg/kg/day oral, Quantifiable concentrations only
# [23] = Day 7, 1 mg/kg/day oral, Estimated final concentrations
# [24] = Day 7, 1 mg/kg/day oral, Quantifiable concentrations only
# rat ER-α, sequence (P06211 whole entry): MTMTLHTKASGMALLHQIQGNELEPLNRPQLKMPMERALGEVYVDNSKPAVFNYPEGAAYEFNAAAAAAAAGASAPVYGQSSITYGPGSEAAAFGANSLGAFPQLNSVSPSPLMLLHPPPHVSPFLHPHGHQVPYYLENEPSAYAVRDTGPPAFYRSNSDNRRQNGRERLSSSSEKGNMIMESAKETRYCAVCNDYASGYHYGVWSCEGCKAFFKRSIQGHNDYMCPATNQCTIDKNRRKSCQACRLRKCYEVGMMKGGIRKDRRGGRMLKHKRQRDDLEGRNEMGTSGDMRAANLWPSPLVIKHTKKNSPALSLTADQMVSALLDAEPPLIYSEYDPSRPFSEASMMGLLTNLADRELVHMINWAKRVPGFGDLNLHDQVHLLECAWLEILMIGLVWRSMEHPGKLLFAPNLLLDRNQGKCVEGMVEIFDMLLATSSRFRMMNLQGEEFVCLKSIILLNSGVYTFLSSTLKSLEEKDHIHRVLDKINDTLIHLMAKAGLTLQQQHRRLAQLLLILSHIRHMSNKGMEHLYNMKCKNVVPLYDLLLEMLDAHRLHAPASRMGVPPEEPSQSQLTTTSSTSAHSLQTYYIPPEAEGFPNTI
structure (smiles),measurement,setting,value
"O=C(c1ccc(O)c(F)c1)N(c1ccc(O)cc1)c1ccc(F)cc1 [Compound IV, 3-fluoro-N-(4-fluorophenyl)-4-hydroxy-N-(4-hydroxyphenyl)benzamide]",ERα activity in transient transfection assays,rat ER-α,agonist
same,selectivity for ERα over ERβ in transcriptional activation,rat ER-α,49.0 fold
same,antagonist effects on estradiol-stimulated transcriptional activation,"rat ER-α; estradiol 1 nM, concentrations up to 10 μM",no antagonist effects were observed
same,relative selectivity in transactivation potency for ERα over ERβ,rat ER-α; normalized to estradiol values,9.7 fold
same,gastrointestinal motility and gastric acidity,rats [1]; 30 mg/kg,significant increase
same,peristalsis,rats [1]; 30 to 300 mg/kg,significant increase
same,tolerability,rats [2]; single and repeated oral administration (up to 28 days),well-tolerated
same,"pathologic changes in kidney, liver, heart and other non-target-related organs",rats [2]; up to 28 days oral,no pathologic changes observed
same,crossreaction with GR,[3],did not
same,induction of CYP3A4,CYP3A4,does not induce
same,effect on thrombin-induced platelet aggregation,human platelets,decreased aggregation
same,PSA reduction (in mean),[4]; 10 mg/kg for 4 weeks,69%
same,PSA reduction (in mean),[4]; 100 mg/kg for 4 weeks,87%
same,body weight reduction,"[4]; 100 mg/kg, 91 days (FIG. 14)",~20%
same,Mean serum PSA level,[4]; [5],0.9 ng/mL
same,Percentage change of mean PSA levels compared to baseline,[4]; [5],−11%
same,Mean serum PSA level,[4]; [6],0.9 ng/mL
same,Percentage change of mean PSA levels compared to baseline,[4]; [6],−11%
same,Mean serum PSA level,[4]; [7],0.3* ng/mL
same,Percentage change of mean PSA levels compared to baseline,[4]; [7],−69%
same,Mean serum PSA level,[4]; [8],0.3 ng/mL
same,Percentage change of mean PSA levels compared to baseline,[4]; [8],−64%
same,Mean serum PSA level,[4]; [9],0.1^& ng/mL
same,Percentage change of mean PSA levels compared to baseline,[4]; [9],−87%
same,Mean serum PSA level,[4]; [10],0.3 ng/mL
same,Percentage change of mean PSA levels compared to baseline,[4]; [10],−72%
same,Percentage change of mean prostate volumes compared to baseline,[4]; 1 mg/kg/day oral,6.8%
same,Mean prostate volumes (ratio),[4]; 1 mg/kg/day oral,468
same,Percentage change of mean prostate volumes compared to baseline,[4]; 10 mg/kg/day oral,−25%
same,Mean prostate volumes (ratio),[4]; 10 mg/kg/day oral,327
same,Percentage change of mean prostate volumes compared to baseline,[4]; 100 mg/kg/day oral,−45%
same,Mean prostate volumes (ratio),[4]; 100 mg/kg/day oral,242
same,Mean prostate weights at necropsy,[4]; 1 mg/kg/day oral,1.8 grams
same,Percentage change of mean prostate weights compared to baseline,[4]; 1 mg/kg/day oral,1.7%
same,Mean prostate weights at necropsy,[4]; 10 mg/kg/day oral,1.3 grams
same,Percentage change of mean prostate weights compared to baseline,[4]; 10 mg/kg/day oral,−24%
same,Mean prostate weights at necropsy,[4]; 100 mg/kg/day oral,1.4 grams
same,Percentage change of mean prostate weights compared to baseline,[4]; 100 mg/kg/day oral,−21%
same,gynecomastia or hyperestrogenicity,[4]; 91 days (FIG. 14),No sign of gynecomastia or hyperestrogenicity
same,Mean serum testosterone level,[4]; [11],11 ng/mL
same,Percentage change of mean serum testosterone levels compared to baseline,[4]; [11],44%
same,Mean serum testosterone level,[4]; [12],11 ng/mL
same,Percentage change of mean testosterone levels compared to baseline,[4]; [12],44%
same,Mean serum testosterone level,[4]; [13],7.6 ng/mL
same,Percentage change of mean serum testosterone levels compared to baseline,[4]; [13],54%
same,Mean serum testosterone level,[4]; [14],7.6 ng/mL
same,Percentage change of mean testosterone levels compared to baseline,[4]; [14],54%
same,Mean serum testosterone level,[4]; [15],8.0 ng/mL
same,Percentage change of mean serum testosterone levels compared to baseline,[4]; [15],82%
same,Mean serum testosterone level,[4]; [16],8.0 ng/mL
same,Percentage change of mean testosterone levels compared to baseline,[4]; [16],82%
same,Mean serum testosterone level,[4]; [17],7.4 ng/mL
same,Percentage change of mean serum testosterone levels compared to baseline,[4]; [17],1.8%
same,Mean serum testosterone level,[4]; [18],7.4 ng/mL
same,Percentage change of mean testosterone levels compared to baseline,[4]; [18],1.8%
same,Mean serum testosterone level,[4]; [19],5.1 ng/mL
same,Percentage change of mean serum testosterone levels compared to baseline,[4]; [19],3.5%
same,Mean serum testosterone level,[4]; [20],5.1 ng/mL
same,Percentage change of mean testosterone levels compared to baseline,[4]; [20],3.5%
same,suppression of serum testosterone relative to the baseline value,"[4]; Day 3, 100 mg/kg/day oral",60%
same,Mean serum testosterone level,[4]; [21],1.8* ng/mL
same,Percentage change of mean serum testosterone levels compared to baseline,[4]; [21],−60%
same,Mean serum testosterone level,[4]; [22],1.8 ng/mL
same,Percentage change of mean testosterone levels compared to baseline,[4]; [22],−60%
same,Mean serum testosterone level,[4]; [23],6.7 ng/mL
same,Percentage change of mean serum testosterone levels compared to baseline,[4]; [23],−8.1%
same,Mean serum testosterone level,[4]; [24],6.7 ng/mL
same,Percentage change of mean testosterone levels compared to baseline,[4]; [24],−8.1%
same,Mean serum testosterone level,"[4]; Day 7, 10 mg/kg/day oral, Estimated final concentrations",7.7 ng/mL
